Structure (SMILES): CC(CO)(CO)CO
- solubility (mole fraction) (in ethyl acetate, 283.15 K): 0.00205
- solubility (mole fraction) (in ethyl acetate, 288.15 K): 0.00263
- solubility (mole fraction) (in ethyl acetate, 293.15 K): 0.00335
- solubility (mole fraction) (in ethyl acetate, 298.15 K): 0.00433
- solubility (mole fraction) (in ethyl acetate, 303.15 K): 0.00528
- solubility (mole fraction) (in ethyl acetate, 311.05 K): 0.00673
- solubility (mole fraction) (in ethyl acetate, 313.15 K): 0.00841
- solubility (mole fraction) (in ethyl acetate, 318.15 K): 0.0105
- solubility (mole fraction) (in methyl acetate, 283.15 K): 0.0026
- solubility (mole fraction) (in methyl acetate, 288.15 K): 0.00317
- solubility (mole fraction) (in methyl acetate, 293.15 K): 0.00398
- solubility (mole fraction) (in methyl acetate, 298.15 K): 0.00512
- solubility (mole fraction) (in methyl acetate, 303.15 K): 0.00638
- solubility (mole fraction) (in methyl acetate, 311.05 K): 0.00801
- solubility (mole fraction) (in methyl acetate, 313.15 K): 0.00997
- solubility (mole fraction) (in methyl acetate, 318.15 K): 0.013
- solubility (mole fraction) (in n-butanol, 283.15 K): 0.0386
- solubility (mole fraction) (in n-butanol, 288.15 K): 0.0449
- solubility (mole fraction) (in n-butanol, 293.15 K): 0.0535
- solubility (mole fraction) (in n-butanol, 298.15 K): 0.0634
- solubility (mole fraction) (in n-butanol, 303.15 K): 0.0769
- solubility (mole fraction) (in n-butanol, 311.05 K): 0.0914
- solubility (mole fraction) (in n-butanol, 313.15 K): 0.11
- solubility (mole fraction) (in n-butanol, 318.15 K): 0.131

Reference: BigSolDB 2.1
